Reference: patent publication EP4644375A1, “SUBSTITUTED HYDROQUINOLINES FOR THE TREATMENT OF GLIOBLASTOMA MULTIFORME” (Molius Saglik Teknolojileri Anonim Sirketi, priority 2024, dated 2025)

Legend:
[1] = In vivo GBM rat model: haematology; conditions: GBM rats, 30 mg/kg oral, 5 days, blood at necropsy
Method: (§1) The parameters that were analysed can be seen in Table 11.

GFAP = assay: In vivo GBM rat model: immunohistochemical examination; conditions: brain tissues, GBM rats, 30 mg/kg oral, 5 days
Source text: (§2) For immunohistochemical examinations, primary antibodies (Ki67 Cat no: ab15580 dilution ratio: 1/100; CMPK2 Cat no: PA5-34461, dilution ratio: 1/100, GFAP Cat no: ab6842 dilution ratio: 1/100) were used. 3-3' Diaminobenzidine (DAB) was used as chromogen. Mayer's hematoxylin was used for counterstaining. Sections were examined under a light microscope (Zeiss AXIO, Germany).
(§3) Individual body weights were manually calculated. Group mean body weights; group mean body weight changes and organ weights were also manually calculated without statistical analysis. To determine the density of positive staining from immunohistochemical and immunofluorescence staining images, five randomly selected areas were evaluated using ZEISS Zen Imaging Software. Data were statistically defined as mean and standard deviation (mean ± SD) for the percentage of the area. One-way ANOVA followed by the Tukey test was performed to compare immunoreactive cells and immune-positive stained areas with healthy controls. GraphPad Prism software was used for analysis.

CMPK2 = assay: as above; conditions: tumor cells, brain tissues, GBM rats, 30 mg/kg oral, 5 days
Source text: as §2, §3

Ki67 = assay: as above; conditions: tumor cells, brain tissues, GBM rats, 30 mg/kg oral, 5 days
Source text: as §2, §3

GBM xenograft rat model [2] = assay: In vivo GBM rat model: MRI analysis of tumor volumes; conditions: GBM rats, 30 mg/kg oral, 5 days, ranking
Method: (§4) An in Vivo study was performed to assess the therapeutic potential of TR-G002, TR-G045, TR-G053, TR-G066, TR-G071 and TR-G091 in the GBM xenograft rat model when administered orally by gavage for five consecutive days. 152 female rats of the Sprague Dawley strain were allocated to the study. Six groups of sixteen females were given dose of 30 mg/kg of the respective target compounds. […] The study design can be seen in Fig. 11 and Table 10.
(§5) Female Sprague Dawley rats (age: 6-8 weeks; weight: 255-310 g; ATADEM, Erzurum, Turkey) were utilized in the study. Rats underwent anaesthesia with 5% isoflurane, maintained at 2% isoflurane (1 L/min oxygen), and were positioned in a stereotactic frame for cell implantation (Stoelting Co., IL). […] A burr hole was drilled 1-mm anterior and 3-mm lateral to the right bregma. A microsyringe (Hamilton 1700 series) containing 5×10^4 U87-MG cells suspended in 5 µL of medium at 37 °C was advanced to a depth of 4 mm into the brain. The cells were injected at a rate of 3 µL/ min. Bone wax was used to fill the burr hole to prevent cell suspension reflux. The incision was sutured, and 1 mL of Meloxicam (5 mg/mL; Metacam, Boehringer Ingelheim Vetmedica, Ingelheim, Germany) was administered via a subcutaneous injection.
(§6) Fourteen days after inoculation, tumor development in rats was visualized and confirmed through magnetic resonance imaging (MRI). Rats confirmed to have developed tumors were then distributed into six different groups for treatment. […] 9 days after the final treatment dose, the rats underwent another MRI scan and blood and brain samples were taken under anaesthesia.
The anaesthetic was administered via an intraperitoneal route on animals fixed in the supine position with parallel hind limbs. MRI was performed using a 3 Tesla clinical scanner (Magnetom Skyra; Siemens Healthineers, Erlangen, Germany). Rats were placed in the prone position. T2-SPACE (sampling perfection with application-optimized contrast using different flip angle Evolution) sequence was obtained to view the brain in coronal and transverse planes. (TR: 6000 ms, TE: 100 ms, voxel size: 0.5 × 0.5 × 1 mm, 34 slices, slice thickness: 2 mm, slice spacing: 0.6 mm). The volume measurements of brain tumors were performed manually. One radiologist calculated the tumour volume - manually measuring tumour length (L), width (W), and height (H) - and then calculated the tumour volume using the formula 0.5236 × L × W × H (Stuppner S et al., 2020).

NOP10 = assay: In vivo GBM rat model: double immunofluorescence examination; conditions: neurons, brain tissues, GBM rats, 30 mg/kg oral, 5 days
Method: (§7) In immunofluorescence examinations, primary antibody (NOP10 Cat no: ab134902 dilution ratio: 1/100) was applied to tissues and incubated according to the instructions. A fluorescent secondary antibody (FITC Cat No: ab6785 dilution Ratio: 1/1000 UK) was then applied and incubated in the dark for 45 minutes. Afterward, a second primary antibody (H2A.X Cat no: sc-517336 dilution ratio: 1/100) was applied and incubated according to the instructions. A different fluorescent secondary antibody (Texas Red Cat No: ab6719 dilution Ratio: 1/1000 UK) was applied and incubated in the dark for 45 minutes. Finally, DAPI (Cat no: D1306 dilution ratio: 1/200 UK) was applied to the sections for 5 minutes in the dark, followed by covering the tissues with coverslips. The stained tissues were examined under a fluorescence attachment-equipped microscope (Zeiss AXIO, Germany).
as §3

H2A.X = assay: as above; conditions: neurons, brain tissues, GBM rats, 30 mg/kg oral, 5 days
Method: as §7, §3

GBM xenograft rat model [3] = assay: In vivo GBM rat model: histopathological examination of brain tissues; conditions: H&E, GBM rats, 30 mg/kg oral, 5 days
Method: as §4, §5, §6
Brain tissue samples were fixed in a 10% buffered formaldehyde solution. After fixation, the tissues were processed through graded alcohol and xylene series and embedded in paraffin blocks. Sections of 5 µm thickness were taken from the paraffin blocks at intervals of 50-100 µm. Hematoxylin and eosin staining was performed on these sections to evaluate histopathological changes. Histopathological findings included tumor focus size, necrotic area, vascular proliferation, and cellular proliferation patterns. Tumor focus size was categorized as follows based on the diameter measured with a 4X objective on the microscope: >3500 µm was considered very severe, 3499-2000 µm severe, 1999-1000 µm moderate, 999-500 µm mild, and <500 µm very mild. Necrotic area size was classified based on the diameter of necrosis: >1500 µm as very severe, 1499-1000 µm severe, 999-500 µm moderate, 499-200 µm mild, and <199 µm very mild.

[4] = In vivo GBM rat model: plasma chemistry; set-up: CREA. / UA / TCHOL / HDLC: unit not given here; conditions: GBM rats, 30 mg/kg oral, 5 days, plasma at necropsy
Method: as §1

Row | Compound | HCT [1] | HGB [1] | MCH [1] | MCHC [1] | MCV [1] | PLT [1] | RBC [1] | WBC [1] | GFAP expression in astrocytes around the tumor (GFAP) | expression of CMPK2 (CMPK2) | expression of Ki67 (Ki67) | antitumor activities, order (GBM xenograft rat model [2]) | expressions of Nopio (NOP10) | expressions of H2AX (H2A.X) | necrosis (grade) (GBM xenograft rat model [3]) | tumor focus (description) (GBM xenograft rat model [3]) | ALP [4] | ALT [4] | AST [4] | CREA. [4] | other results
1 | C=CCOC(=O)COc1ccc2c(c1)CCC(=O)N2 [TR-G071, Allyl 2-((2-oxo-1,2,3,4-tetrahydroquinolin-6-yl)oxy)acetate] | 48.15% | 14.15 g/dL | 17.65 pg | 31.20 g/dL | 58.65 fL | 823.00 10^9 /L | 8.56 10^12/L | 3.82 10^9/L | moderate | moderate | moderate | TR-G066> TR-G045> TR-G002>TMZ> TR-G091> TR-G053> TR-G071 | moderate | moderate | moderate (999-500 µm moderate) | expanded tumor focus | 130.5 IU/L | 61.25 IU/L | 132.5 IU/L | 0.34 | cellular proliferation / mitosis (GBM xenograft rat model [3]): moderate levels of mitosis; vascular proliferation (GBM xenograft rat model [3]): moderate; GLU [4]: 295 mg/dL; HDLC [4]: 34.9; LDH [4]: 504.2 IU/L; LDL C [4]: 5.65 mmol/L; TCHOL [4]: 53.35; TG [4]: 129 mg/dL; UA [4]: 1.69
2 | COc1cc(NC(=O)COc2ccc3c(c2)CCC(=O)N3)cc(OC)c1 [TR-G091, N-(3,5-dimethoxyphenyl)-2-((2-oxo-1,2,3,4-tetrahydroquinolin-6-yl)oxy)acetamide] | 43.95% | 13.80 g/dL | 17.90 pg | 31.40 g/dL | 56.95 fL | 744.50 10^9 /L | 7.73 10^12/L | 6.56 10^9/L | Moderate | moderate | moderate | TR-G066> TR-G045> TR-G002>TMZ> TR-G091> TR-G053> TR-G071 | moderate | moderate | Moderate | extended tumor focus encompassing both grey and white matter | 122.87 IU/L | 46.97 IU/L | 127.9 IU/L | 0.29 | GLU [4]: 299 mg/dL; HDLC [4]: 36.57; LDH [4]: 546.17 IU/L; LDL C [4]: 5.03 mmol/L; TCHOL [4]: 54.43; TG [4]: 121 mg/dL; UA [4]: 1.7
